Results taken from patent publication US20150225404A1, “PYRIDINE DERIVATIVE AND MEDICINE” (NIPPON SHINYAKU CO., LTD., priority 2012, published 2015).
Counter-ions that a name gives are not always drawn.

Experiments:
male Slc:ICR mice [1] = test: Action against formalin-induced pain behavior in mice; format: in vivo; conditions: Mus musculus, iv, 0.1 h, 6 minutes observation, read-out: Percent inhibition of pain-related behavior time (%); for inhibition in vivo at 1 mg/kg: test substance 1 mg/kg intravenously
Procedure: 4 to 6-week-old male Slc:ICR mice (available from Japan SLC, Inc.) were used. A medium or a test substance (1 mg/kg or 3 mg/kg) was intravenously administered to each mouse, and immediately thereafter, 20 μL of 1% or 5% formalin was subcutaneously administered to a right hind paw of the mouse. Thereafter, the mice were quickly put into an observation cage and measured for the total time (sec) of pain-related behavior (licking or biting behavior against the right hindlimb) during 6 minutes, and an average value of the pain-related behavior time of each group was calculated.
The intensity of an analgesic action of the test substance was evaluated in terms of percent inhibition (%) of pain-related behavior time which is calculated as {(A−B)/A×100}, wherein A is an average value of the pain-related behavior time of a medium-administered group, and B is an average value of the pain-related behavior time of a test substance-administered group.

male Slc:ICR mice [2] = test: Action against pain-related behavior and micturition cycle in mice with cyclophosphamide (CP)-induced acute cystitis; format: in vivo; conditions: Mus musculus, iv, 0.25 h, CP 300 mg/kg i.p., 15 minutes observation; for inhibition in vivo at 3 mg/kg: test substance 3 mg/kg intravenously 3 hours after CP; for inhibition in vivo at 1 mg/kg: test substance 1 mg/kg intravenously 3 hours after CP
Procedure: An action of a test substance against visceral pain and frequent urination associated with cystitis, which was induced by intraperitoneal administration (20 mL/kg) of CP (300 mg/kg) to 4 to 5-week-old male Slc:ICR mice (available from Japan SLC, Inc.), was investigated. This experiment was performed according to a method described in European Journal of Pharmacology, 676 (2012), pp. 75-80.
Three hours after the administration of CP, a test substance (1 mg/kg or 3 mg/kg) was intravenously administered, and observation by visual inspection and video recording were performed for 15 minutes immediately thereafter. In the observation by visual inspection, four pain-related behaviors (eye opening, rounded back, leg dragging, and behavior during urination) were scored, each rated on a scale of 0-10, according to the following criteria.
Eye opening (normal: 0 point, sometimes closed or half-open eyes: 5 points, completely closed: 10 points)
Rounded back (normal: 0 point, sometimes crouched: 5 points, crouched at almost all times: 10 points)
Leg dragging (normal: 0 point, leg dragging: 10 points)
Behavior during urination (normal: 0 point, shaking hip in micturition: 10 points)
In addition, the video was played back, and the frequency of licking behavior around the abdomen as a pain-related behavior was scored, rated on a scale of 0-10, according to the following criteria.
Licking behavior around the abdomen (0 to 3 times: 0 point, 4 times to 10 times: 5 points, 11 times or more: 10 points)
Furthermore, the video was played back, and the frequency of urination (urination marks) on a filter paper was counted and taken as an index for micturition cycle.
An average value of the pain-related behavior score of each group (total score of the five items: 50 points at maximum) and an average value of the frequency of urination (urination marks) on the filter paper were determined.
The strength of an analgesic action of the test substance against the CP-induced visceral pain was evaluated in terms of percent inhibition (%) of pain-related behavior score which is calculated as {(A−B)/A×100}, wherein A is an average value of the pain-related behavior score of a medium-administered group, and B is an average value of the pain-related behavior score of a test substance-administered group.
In addition, the strength of a frequent urination inhibitory action of the test substance against the CP-induced frequent urination was evaluated in terms of percent inhibition (%) of the frequency of urination which is calculated as {(C−D)/C×100}, wherein C is an average value of the frequency of urination of a medium-administered group, and D is an average value of the frequency of urination of a test substance-administered group.

human mGluR5 = target: T1, human mGluR5 (Homo sapiens, UniProt P41594); test: Experiment for receptor function of mGluR5 (Ca2+-dependent fluorescence, FLIPR, CHO-K1 cells stably expressing human mGluR5); format: cell-based; conditions: L-glutamic acid 10 μM, Fluo-4 fluorescence
T1 construct: expressed in transfected cells
In short: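 Fluo-4-loaded CHO-K1 cells pre-incubated 2 min with test substance, then stimulated with L-glutamic acid (final 10 μM) in HBSS, pH 7.4. FLIPR Ca2+ fluorescence normalized to glutamate alone (100%) and glutamate with 10 μM MPEP (0%); IC50 estimated by logistic fit.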

[3] = read-out: Percent inhibition of pain-related behavior score (%)
[4] = read-out: Percent inhibition of the frequency of urination (%)

T1 sequence (P41594 21-1212): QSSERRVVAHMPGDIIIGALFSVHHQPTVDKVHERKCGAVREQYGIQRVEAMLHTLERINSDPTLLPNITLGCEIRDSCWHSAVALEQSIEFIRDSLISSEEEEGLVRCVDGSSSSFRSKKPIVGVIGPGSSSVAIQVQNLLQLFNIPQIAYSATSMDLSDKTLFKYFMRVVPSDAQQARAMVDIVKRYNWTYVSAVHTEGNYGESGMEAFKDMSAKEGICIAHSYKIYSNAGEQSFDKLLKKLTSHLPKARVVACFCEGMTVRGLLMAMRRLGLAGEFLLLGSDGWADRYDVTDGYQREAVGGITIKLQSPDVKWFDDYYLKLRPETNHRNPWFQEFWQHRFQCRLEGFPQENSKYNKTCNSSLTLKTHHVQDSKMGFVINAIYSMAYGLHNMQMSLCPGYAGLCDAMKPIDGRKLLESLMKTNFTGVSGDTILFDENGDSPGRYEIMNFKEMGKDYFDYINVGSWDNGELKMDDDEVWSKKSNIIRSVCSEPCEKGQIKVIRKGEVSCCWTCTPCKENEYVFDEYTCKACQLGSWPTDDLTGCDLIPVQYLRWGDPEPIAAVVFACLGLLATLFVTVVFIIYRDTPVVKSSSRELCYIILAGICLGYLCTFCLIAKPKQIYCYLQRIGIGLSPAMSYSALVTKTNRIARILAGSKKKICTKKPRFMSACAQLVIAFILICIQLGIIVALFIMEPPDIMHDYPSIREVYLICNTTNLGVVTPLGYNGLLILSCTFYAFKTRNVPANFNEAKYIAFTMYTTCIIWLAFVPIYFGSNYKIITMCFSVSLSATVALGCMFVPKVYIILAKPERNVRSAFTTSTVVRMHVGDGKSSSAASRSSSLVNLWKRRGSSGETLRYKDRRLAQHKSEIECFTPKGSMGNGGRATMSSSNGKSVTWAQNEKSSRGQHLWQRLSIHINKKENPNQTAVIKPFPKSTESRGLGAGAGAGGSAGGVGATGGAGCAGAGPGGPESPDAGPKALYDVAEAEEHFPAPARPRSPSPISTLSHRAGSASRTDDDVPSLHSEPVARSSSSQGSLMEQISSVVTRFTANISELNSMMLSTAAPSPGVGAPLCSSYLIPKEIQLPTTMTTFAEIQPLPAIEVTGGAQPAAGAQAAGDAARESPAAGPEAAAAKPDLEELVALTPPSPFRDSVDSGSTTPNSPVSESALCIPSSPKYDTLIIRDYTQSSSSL

IC50 (human mGluR5)	Compound	inhibition in vivo at 3 mg/kg (male Slc:ICR mice [2]; [3])	inhibition in vivo at 3 mg/kg (male Slc:ICR mice [2]; [4])	other results
–	c1ccc(COc2cc(-c3cncnc3)c3c(n2)CCC3)nc1 [Example 12, 2-(Pyridin-2-ylmethoxy)-4-(pyrimidin-5-yl)-6,7-dihydro-5H-cyclopenta[b]pyridine hydrochloride]	–	–	inhibition in vivo at 1 mg/kg (male Slc:ICR mice [1]; 1% formalin): 66.8%
–	Fc1cccc(COc2cc(-c3cncnc3)c3c(n2)CCC3)c1 [Example 15, 2-[(3-Fluorobenzyl)oxy]-4-(pyrimidin-5-yl)-6,7-dihydro-5H-cyclopenta[b]pyridine]	–	–	inhibition in vivo at 1 mg/kg (male Slc:ICR mice [1]; 5% formalin): 64%
71 nM	Cc1ncc(-c2cc(OCc3ccccn3)nc3c2CCC3)cn1 [Example 36, 4-(2-Methylpyrimidin-5-yl)-2-(pyridin-2-ylmethoxy)-6,7-dihydro-5H-cyclopenta[b]pyridine hydrochloride]	40.4%	31.3%	–
–	Cc1ncc(-c2cc(OCc3nc(F)ccc3F)nc3c2CCC3)cn1 [Example 43, 2-[(3,6-Difluoropyridin-2-yl)methoxy]-4-(2-methylpyrimidin-5-yl)-6,7-dihydro-5H-cyclopenta[b]pyridine]	31%	41.9%	–
–	Cc1cccc(COc2cc(-c3cnc(C)nc3)c3c(n2)CCC3)n1 [Example 45, 2-[(6-Methylpyridin-2-yl)methoxy]-4-(2-methylpyrimidin-5-yl)-6,7-dihydro-5H-cyclopenta[b]pyridine hydrochloride]	34.1%	33.8%	–
207 nM	Cc1ncc(-c2cc(OCc3cccc(C#N)n3)nc3c2CCC3)cn1 [Example 46, 6-({[4-(2-Methylpyrimidin-5-yl)-6,7-dihydro-5H-cyclopenta[b]pyridin-2-yl]oxy}methyl)pyridine-2-carbonitrile]	–	–	inhibition in vivo at 1 mg/kg (male Slc:ICR mice [2]; [3]): 22%; inhibition in vivo at 1 mg/kg (male Slc:ICR mice [2]; [4]): 31.5%
38 nM	c1ccc(COc2cc(-c3cncnc3)c3c(n2)CCCC3)nc1 [Example 143, 2-(Pyridin-2-ylmethoxy)-4-(pyrimidin-5-yl)-5,6,7,8-tetrahydroquinoline hydrochloride]	52.2%	47.7%	–
19.7 nM	Fc1cccnc1COc1cc(-c2cncnc2)c2c(n1)CCCC2 [Example 147, 2-[(3-Fluoropyridin-2-yl)methoxy]-4-(pyrimidin-5-yl)-5,6,7,8-tetrahydroquinoline]	38.8%	21.1%	–
22 nM	Fc1ccc(F)c(COc2cc(-c3cncnc3)c3c(n2)CCCC3)n1 [Example 148, 2-[(3,6-Difluoropyridin-2-yl)methoxy]-4-(pyrimidin-5-yl)-5,6,7,8-tetrahydroquinoline]	45.7%	31.5%	–
–	c1cnc(COc2cc(-c3cncnc3)c3c(n2)CCCC3)cn1 [Example 163, 2-(Pyrazin-2-ylmethoxy)-4-(pyrimidin-5-yl)-5,6,7,8-tetrahydroquinoline]	–	–	inhibition in vivo at 3 mg/kg (male Slc:ICR mice [1]; 5% formalin, test substance 3 mg/kg intravenously): 37.2%
123 nM	Cc1cccc(COc2cc(-c3cnc(C)nc3)c3c(n2)CCCC3)n1 [Example 182, 2-[(6-Methylpyridin-2-yl)methoxy]-4-(2-methylpyrimidin-5-yl)-5,6,7,8-tetrahydroquinoline hydrochloride]	26%	43.2%	–
148 nM	Cc1ncc(-c2cc(OCc3cccc(C#N)n3)nc3c2CCCC3)cn1 [Example 183, 6-({[4-(2-Methylpyrimidin-5-yl)-5,6,7,8-tetrahydroquinolin-2-yl]oxy}methyl)pyridine-2-carbonitrile]	–	–	inhibition in vivo at 1 mg/kg (male Slc:ICR mice [2]; [3]): 37%; inhibition in vivo at 1 mg/kg (male Slc:ICR mice [2]; [4]): 22.7%
36 nM	Nc1ncc(-c2cc(OCc3ncccc3F)nc3c2CCCC3)cn1 [Example 191, 5-{2-[(3-Fluoropyridin-2-yl)methoxy]-5,6,7,8-tetrahydroquinolin-4-yl}pyrimidin-2-amine hydrochloride]	20.5%	36.5%	–
–	OCc1cncc(-c2cc(OCc3ncccc3F)nc3c2CCCC3)n1 [Example 217, (6-{2-[(3-Fluoropyridin-2-yl)methoxy]-5,6,7,8-tetrahydroquinolin-4-yl}pyrazin-2-yl)methanol]	38.3%	40.4%	–
–	Fc1ccc(F)c(COc2cc(-c3cncnc3)c3c(n2)CCC3)n1 [Example 255, 2-[(3,6-Difluoropyridin-2-yl)methoxy]-4-(pyrimidin-5-yl)-6,7-dihydro-5H-cyclopenta[b]pyridine]	31%	26.4%	–
–	OCc1cncc(-c2cc(OCc3ccccn3)nc3c2CCC3)n1 [Example 268, {6-[2-(Pyridin-2-ylmethoxy)-6,7-dihydro-5H-cyclopenta[b]pyridin-4-yl]pyrazin-2-yl}methanol hydrochloride]	–	–	inhibition in vivo at 1 mg/kg (male Slc:ICR mice [1]; 5% formalin): 53.9%
108 nM	N#Cc1cccc(COc2cc(-c3cncnc3)c3c(n2)CCCC3)c1 [Example 279, 3-({[4-(Pyrimidin-5-yl)-5,6,7,8-tetrahydroquinolin-2-yl]oxy}methyl)benzonitrile]	–	–	–
92 nM	Fc1ccc(COc2cc(-c3cncnc3)c3c(n2)CCCC3)cc1 [Example 280, 2-[(4-Fluorobenzyl)oxy]-4-(pyrimidin-5-yl)-5,6,7,8-tetrahydroquinoline]	–	–	–
94 nM	Fc1cccc(COc2cc(-c3cncnc3)c3c(n2)CCCC3)c1 [Example 281, 2-[(3-Fluorobenzyl)oxy]-4-(pyrimidin-5-yl)-5,6,7,8-tetrahydroquinoline]	–	–	–
66 nM	N#Cc1cc(COc2cc(-c3cncnc3)c3c(n2)CCCC3)ccn1 [Example 282, 4-({[4-(Pyrimidin-5-yl)-5,6,7,8-tetrahydroquinolin-2-yl]oxy}methyl)pyridine-2-carbonitrile]	–	–	–
–	Nc1ncc(-c2cc(OCc3cccc(F)n3)nc3c2CCCC3)cn1 [Example 283, 5-{2-[(6-Fluoropyridin-2-yl)methoxy]-5,6,7,8-tetrahydroquinolin-4-yl}pyrimidin-2-amine hydrochloride]	–	–	inhibition in vivo at 1 mg/kg (male Slc:ICR mice [1]; 5% formalin): 38.8%
95 nM	Cc1cc(COc2cc(-c3cnc(C)nc3)c3c(n2)CCCC3)ccn1 [Example 286, 2-[(2-Methylpyridin-4-yl)methoxy]-4-(2-methylpyrimidin-5-yl)-5,6,7,8-tetrahydroquinoline]	–	–	–
146 nM	Cc1ncc(-c2cc(OCc3ccnc(C#N)c3)nc3c2CCCC3)cn1 [Example 287, 4-({[4-(2-Methylpyrimidin-5-yl)-5,6,7,8-tetrahydroquinolin-2-yl]oxy}methyl)pyridine-2-carbonitrile]	–	–	–
119 nM	N#Cc1ccc(COc2cc(-c3cncc(CO)n3)c3c(n2)CCCC3)nc1 [Example 288, 6-[({4-[6-(Hydroxymethyl)pyrazin-2-yl]-5,6,7,8-tetrahydroquinolin-2-yl}oxy)methyl]pyridine-3-carbonitrile]	–	–	–
